Experimental findings from patent US10118903B2, “Aminotriazole-based KDM1A inhibitors as epigenetic modulators” (MUSC FOUNDATION FOR RESEARCH DEVELOPMENT, priority 2014, dated 2018) are described below.

The target in one series is T1, human recombinant LSD1 (Homo sapiens, UniProt O60341).
T1 construct: purchased Cayman Chemical Item #700120
Nature of the series: LSD1 inhibitor screening assay (Cayman Chemical kit, fluorometric). In kind it is biochemical. As to conditions: 10 μM compound. As to the method:
LSD1 Inhibitor Screening Assay:
In short, 10 μM of compound was combined with the fluorometic substrate 10-acetyl-3,7-dihydroxyphenoxazine, horseradish peroxidase, human recombinant LSD1, and 100 μM dimethylated lysine at residue 4 [ARTK(diMe)[…]] (Seq. ID No: 1) for 30 mins at 37° C. Plates were read using an excitation wavelength of 535 nm and an emission wavelength of 590 nm with a SpectraMax M5 Microplate reader.

Series [1] can be described thus: Solubility noted in the LSD1 screen. As to conditions: LSD1 screen at 10 μM. The class given is physicochemical.
[2] abbreviates: synthetic analogues of C1, Table 2.

As for `Fc1ccccc1COc1ccc(Cl)cc1CNc1nc[nH]n1` [Compound C3, N-(5-chloro-2-((2-fluorobenzyl)oxy)benzyl)-1H-1,2,4-triazol-3-amine], the inhibition (as a rule, the relative decrease from the control value, in per cent) at 10 µM at human recombinant LSD1 (Chembridge analogues table) came to 30.6 ± 6.4%.

On to `COc1cccc(CNc2nnc[nH]2)c1OCc1ccccc1Cl` [Compound C7, N-(2((2-chlorobenzyl)oxy)-3-methoxybenzyl)-4H-1,2,4-triazo1-3-amine], for which, at human recombinant LSD1 (Chembridge analogues table), the inhibition at 10 µM came to 18.1 ± 8.2%.

Regarding `Clc1ccccc1CNc1nc[nH]n1` [Compound C6, N-(2-chlorobenzyl)-1H-1,2,4-triazol-3-amine], the inhibition at 10 µM at human recombinant LSD1 (Chembridge analogues table) is 4.6 ± 6.9%.

In the case of `CCOc1ccc(Cl)cc1CNc1nn[nH]n1` [Compound C14, N-(5-chloro-2-ethoxybenzyl)-2H-tetrazol-5-amine], the inhibition at 10 µM on human recombinant LSD1 (Chembridge analogues table) came out at 20.8 ± 5%.

On to `Cc1ccc(C(C)C)c(Oc2cccc(Cl)c2CNc2nnc(N)[nH]2)c1` [Compound 5c, N^3-(2-chloro-6-(2-isopropyl-5-methylphenoxy)benzyl)-4H-1,2,4-triazole-3,5-diamine], for which the inhibition at 10 µM at human recombinant LSD1 (setting [2]) came to 56.3 ± 3.2%.

As for `COc1cccc(CNc2nn[nH]n2)c1OCc1ccccc1Cl` [Compound C12, N-(2-((2-chlorobenzyl)oxy)-3-methoxybenzyl)-2H-tetrazol-5-amine], the inhibition at 10 µM on human recombinant LSD1 (Chembridge analogues table) turned out to be 22.1 ± 7.3%.

Regarding `Nc1nnc(NCc2c(Cl)cccc2Oc2ccc(SC(F)(F)F)cc2)[nH]1` [Compound 5i, N^3-(2-chloro-6-(4-((trifluoromethyl)thio)phenoxy)benzyl)-4H-1,2,4-triazole-3,5-diamine], in series [1], the “solubility (reason why % inhibition was not determined)” value is given as “Not Determined (Insoluble)”.

Turning to `Cc1ccc(COc2ccc(Cl)cc2CNc2nn[nH]n2)cc1` [Compound C8, N-(5-chloro-2-((4-methylbenzyl)oxy)benzyl)-2H-tetrazol-5-amine], on human recombinant LSD1 (Chembridge analogues table), the inhibition at 10 µM is 6.9 ± 7.5%.

For `Nc1n[nH]c(NCc2ccccc2Oc2cccc3ccccc23)n1` [Compound M9], the inhibition at 10 µM on human recombinant LSD1 (setting [2]) was found to be 78.1 ± 2.6%.

Consider `Fc1ccc(COc2ccc(Cl)cc2CNc2nc[nH]n2)cc1` [Compound C2, N-(5-chloro-2-((4-fluorobenzyl)oxy)benzyl)-1H-1,2,4-triazol-3-amine], for which, on human recombinant LSD1 (Chembridge analogues table), the inhibition at 10 µM is 27.7 ± 9%.

Regarding `Nc1n[nH]c(NCc2c(Cl)cccc2Oc2ccc(-c3ccccc3)cc2)n1` [Compound M3], the inhibition at 10 µM on human recombinant LSD1 (setting [2]) is 66.8 ± 4.4%.

Regarding `Nc1nnc(NCc2c(Cl)cccc2Oc2cc(C(F)(F)F)cc(C(F)(F)F)c2)[nH]1` [Compound 5h, N^3-(2-(3,5-bis(trifluoromethyl)phenoxy)-6-chlorobenzyl)-4H-1,2,4-triazole-3,5-diamine], the inhibition at 10 µM on human recombinant LSD1 (setting [2]) came to 44.9 ± 4.6%.

For `Nc1nnc(NCc2ccccc2)[nH]1` [Compound 5e], the inhibition at 10 µM on human recombinant LSD1 (setting [2]) was determined as 41 ± 17.4%.

`COc1cccc(NCc2nn[nH]n2)c1OCc1ccc(F)cc1Cl` [Compound C5, N-((2H-tetrazol-5-yl)methyl)-2-((2-chloro-4-fluorobenzyl)oxy)-3-methoxyaniline]: at human recombinant LSD1 (Chembridge analogues table), the inhibition at 10 µM is -3.1 ± 7.8%.

As to `COc1cc(Oc2cccc(Cl)c2CNc2nc(N)n[nH]2)cc(OC)c1OC` [Compound M7], on human recombinant LSD1 (setting [2]), the inhibition at 10 µM is 67.6 ± 6.2%.

For `Clc1cccc(Cl)c1CNc1nc[nH]n1` [Compound C9, N-(2,6-dichlorobenzyl)-1H-1,2,4-triazol-3-amine], the inhibition at 10 µM at human recombinant LSD1 (Chembridge analogues table) was determined as 30.9 ± 7.7%.

In the case of `COc1cc(Oc2ccccc2CNc2nc(N)n[nH]2)cc(OC)c1OC` [Compound M8], the inhibition at 10 µM on human recombinant LSD1 (setting [2]) came to 56 ± 4.1%.

As to `COc1ccc(Sc2cccc(Cl)c2CNc2nnc(N)[nH]2)cc1OC` [Compound 5t, N^3-(2-chloro-6-((3,4-dimethoxyphenyl)thio)benzyl)-4H-1,2,4-triazole-3,5-diamine], the inhibition at 10 µM on human recombinant LSD1 (setting [2]) came to 53.2 ± 1.7%.

`COc1cccc(Cl)c1CNc1nc(N)n[nH]1` [Compound H1]: the inhibition at 10 µM at human recombinant LSD1 (setting [2]) turned out to be 73.1 ± 1.6%.

For `Clc1ccc(CNc2nc[nH]n2)c(Cl)c1` [Compound C4, N-(2,4-dichlorobenzyl)-1H-1,2,4-triazol-3-amine], the inhibition at 10 µM at human recombinant LSD1 (Chembridge analogues table) is 2.2 ± 6.9%.

For the molecule `CCOc1cc(Cl)cc(CNc2nc[nH]n2)c1` [Compound C10, N-(3-chloro-5-ethoxybenzyl)-1H-1,2,4-triazol-3-amine], the inhibition at 10 µM on human recombinant LSD1 (Chembridge analogues table) is -3 ± 12.7%.

Consider `Nc1nnc(NCc2c(Cl)cccc2Oc2ccc3c(c2)OCO3)[nH]1` [Compound 5r, N^3-(2-(benzo[d][1,3]dioxol-5-yloxy)-6-chlorobenzyl)-4H-1,2,4-triazole-3,5-diamine], for which the inhibition at 10 µM at human recombinant LSD1 (setting [2]) stood at 65.8 ± 6.4%.

Turning to `COc1cc(C)ccc1Oc1cccc(Cl)c1CNc1nnc(N)[nH]1` [Compound 5m, N^3-(2-chloro-6-(2-methoxy-4-methylphenoxy)benzyl)-4H-1,2,4-triazole-3,5-diamine], on human recombinant LSD1 (setting [2]), the inhibition at 10 µM was determined as 84.7 ± 3.2%.

With `COc1cc(OC)cc(Oc2cccc(Cl)c2CNc2nnc(N)[nH]2)c1` [Compound 5n, N^3-(2-chloro-6-(3,5-dimethoxyphenoxy)benzyl)-4H-1,2,4-triazole-3,5-diamine], the inhibition at 10 µM on human recombinant LSD1 (setting [2]) came out at 63.3 ± 8.6%.

On to `CCOc1cc(C)ccc1Oc1cccc(Cl)c1CNc1nc(N)n[nH]1` [Compound M4], for which the inhibition at 10 µM at human recombinant LSD1 (setting [2]) was 77.7 ± 2.9%.

Regarding `Nc1n[nH]c(NCc2c(Cl)cccc2Oc2ccc(F)cc2)n1` [Compound M6], the inhibition at 10 µM on human recombinant LSD1 (setting [2]) was determined as 76.4 ± 2.2%.

Take `Cc1ccccc1Oc1cccc(Cl)c1CNc1nnc(N)[nH]1` [Compound 5q]: the inhibition at 10 µM on human recombinant LSD1 (setting [2]) was 74.2 ± 5.2%.

For the molecule `CCOc1cc(C)ccc1Oc1ccccc1CNc1nc(N)n[nH]1` [Compound M10], the inhibition at 10 µM at human recombinant LSD1 (setting [2]) was found to be 73.8 ± 4.4%.

Regarding `COc1cccc(Oc2cccc(Cl)c2CNc2nnc(N)[nH]2)c1` [Compound 5d, N^3-(2-chloro-6-(3-methoxyphenoxy)benzyl)-4H-1,2,4-triazole-3,5-diamine], the inhibition at 10 µM on human recombinant LSD1 (setting [2]) is 44.6 ± 5.1%.

For `COc1ccc(Cl)cc1CNc1nn[nH]n1` [Compound C13, N-(5-chloro-2-methoxybenzyl)-2H-tetrazol-5-amine], the inhibition at 10 µM on human recombinant LSD1 (Chembridge analogues table) was found to be 30.8 ± 5.7%.

In the case of `Clc1ccc(OCc2ccccc2)c(CNc2nn[nH]n2)c1` [Compound C11, N-(2-(benzyloxy)-5-chlorobenzyl)-2H-tetrazol-5-amine], the inhibition at 10 µM on human recombinant LSD1 (Chembridge analogues table) stood at 19.9 ± 8.4%.

For `Nc1nnc(NCc2c(Cl)cccc2Oc2ccc(Br)cc2C(F)(F)F)[nH]1` [Compound 5k, N^3-(2-(4-bromo-2-(trifluoromethyl)phenoxy)-6-chlorobenzyl)-4H-1,2,4-triazole-3,5-diamine], the inhibition at 10 µM at human recombinant LSD1 (setting [2]) is 67.8 ± 5.4%.

Take `Cc1ccc(Oc2cccc(Cl)c2CNc2nnc(N)[nH]2)cc1` [Compound 5b, N^3-(2-chloro-6-(p-tolyloxy)benzyl)-4H-1,2,4-triazole-3,5-diamine]: on human recombinant LSD1 (setting [2]), the inhibition at 10 µM amounted to 59.3 ± 6.1%.

Take `Cc1cc(C)cc(Oc2cccc(Cl)c2CNc2nnc(N)[nH]2)c1` [Compound 5g, N^3-(2-chloro-6-(3,5-dimethylphenoxy)benzyl)-4H-1,2,4-triazole-3,5-diamine]: the inhibition at 10 µM on human recombinant LSD1 (setting [2]) came to 67.9 ± 6.5%.

As for `Nc1n[nH]c(NCc2c(Cl)cccc2Oc2cccc3cc[nH]c23)n1` [Compound M5], the inhibition at 10 µM at human recombinant LSD1 (setting [2]) was 67.6 ± 3.7%.

`CC(C)(C)c1ccc(Oc2cccc(Cl)c2CNc2nnc(N)[nH]2)cc1` [Compound 5f, N^3-(2-(4-(tert-butyl)phenoxy)-6-chlorobenzyl)-4H-1,2,4-triazole-3,5-diamine]: at human recombinant LSD1 (setting [2]), the inhibition at 10 µM was determined as 58.2 ± 8.8%.

Turning to `Nc1n[nH]c(NCc2c(Cl)cccc2Oc2cccc3ccccc23)n1` [Compound M1], the inhibition at 10 µM on human recombinant LSD1 (setting [2]) is 95.3 ± 2.8%.
